Source: US10787452B2 (Vertex Pharmaceuticals Incorporated, priority 2012, dated 2020)
pKi: −log10 of the molar value.

Key:
[1] = system: HCT116 colorectal cancer cells; assay: Cisplatin sensitization assay (96 h cell viability MTS); assay type: cell-based; conditions: 96 h MTS, compound plus Cisplatin;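 also: compound concentration needed to lower the Cisplatin-alone IC50 by a set fold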
Outline: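 HCT116 cells were co-treated with compound and cisplatin, each in 2-fold serial dilutions from a 10 μM top final concentration, as a full matrix. After 96 h at 37 °C, 5% CO2, viability was read by MTS following a 1 h incubation with reagent.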

full-length ATR = full-length ATR (Homo sapiens (Human), UniProt Q13535); assay: ATR inhibition assay (radioactive-phosphate incorporation); assay type: biochemical; conditions: 5 nM full-length ATR, Ki(app)
Chain of full-length ATR (Q13535 whole entry): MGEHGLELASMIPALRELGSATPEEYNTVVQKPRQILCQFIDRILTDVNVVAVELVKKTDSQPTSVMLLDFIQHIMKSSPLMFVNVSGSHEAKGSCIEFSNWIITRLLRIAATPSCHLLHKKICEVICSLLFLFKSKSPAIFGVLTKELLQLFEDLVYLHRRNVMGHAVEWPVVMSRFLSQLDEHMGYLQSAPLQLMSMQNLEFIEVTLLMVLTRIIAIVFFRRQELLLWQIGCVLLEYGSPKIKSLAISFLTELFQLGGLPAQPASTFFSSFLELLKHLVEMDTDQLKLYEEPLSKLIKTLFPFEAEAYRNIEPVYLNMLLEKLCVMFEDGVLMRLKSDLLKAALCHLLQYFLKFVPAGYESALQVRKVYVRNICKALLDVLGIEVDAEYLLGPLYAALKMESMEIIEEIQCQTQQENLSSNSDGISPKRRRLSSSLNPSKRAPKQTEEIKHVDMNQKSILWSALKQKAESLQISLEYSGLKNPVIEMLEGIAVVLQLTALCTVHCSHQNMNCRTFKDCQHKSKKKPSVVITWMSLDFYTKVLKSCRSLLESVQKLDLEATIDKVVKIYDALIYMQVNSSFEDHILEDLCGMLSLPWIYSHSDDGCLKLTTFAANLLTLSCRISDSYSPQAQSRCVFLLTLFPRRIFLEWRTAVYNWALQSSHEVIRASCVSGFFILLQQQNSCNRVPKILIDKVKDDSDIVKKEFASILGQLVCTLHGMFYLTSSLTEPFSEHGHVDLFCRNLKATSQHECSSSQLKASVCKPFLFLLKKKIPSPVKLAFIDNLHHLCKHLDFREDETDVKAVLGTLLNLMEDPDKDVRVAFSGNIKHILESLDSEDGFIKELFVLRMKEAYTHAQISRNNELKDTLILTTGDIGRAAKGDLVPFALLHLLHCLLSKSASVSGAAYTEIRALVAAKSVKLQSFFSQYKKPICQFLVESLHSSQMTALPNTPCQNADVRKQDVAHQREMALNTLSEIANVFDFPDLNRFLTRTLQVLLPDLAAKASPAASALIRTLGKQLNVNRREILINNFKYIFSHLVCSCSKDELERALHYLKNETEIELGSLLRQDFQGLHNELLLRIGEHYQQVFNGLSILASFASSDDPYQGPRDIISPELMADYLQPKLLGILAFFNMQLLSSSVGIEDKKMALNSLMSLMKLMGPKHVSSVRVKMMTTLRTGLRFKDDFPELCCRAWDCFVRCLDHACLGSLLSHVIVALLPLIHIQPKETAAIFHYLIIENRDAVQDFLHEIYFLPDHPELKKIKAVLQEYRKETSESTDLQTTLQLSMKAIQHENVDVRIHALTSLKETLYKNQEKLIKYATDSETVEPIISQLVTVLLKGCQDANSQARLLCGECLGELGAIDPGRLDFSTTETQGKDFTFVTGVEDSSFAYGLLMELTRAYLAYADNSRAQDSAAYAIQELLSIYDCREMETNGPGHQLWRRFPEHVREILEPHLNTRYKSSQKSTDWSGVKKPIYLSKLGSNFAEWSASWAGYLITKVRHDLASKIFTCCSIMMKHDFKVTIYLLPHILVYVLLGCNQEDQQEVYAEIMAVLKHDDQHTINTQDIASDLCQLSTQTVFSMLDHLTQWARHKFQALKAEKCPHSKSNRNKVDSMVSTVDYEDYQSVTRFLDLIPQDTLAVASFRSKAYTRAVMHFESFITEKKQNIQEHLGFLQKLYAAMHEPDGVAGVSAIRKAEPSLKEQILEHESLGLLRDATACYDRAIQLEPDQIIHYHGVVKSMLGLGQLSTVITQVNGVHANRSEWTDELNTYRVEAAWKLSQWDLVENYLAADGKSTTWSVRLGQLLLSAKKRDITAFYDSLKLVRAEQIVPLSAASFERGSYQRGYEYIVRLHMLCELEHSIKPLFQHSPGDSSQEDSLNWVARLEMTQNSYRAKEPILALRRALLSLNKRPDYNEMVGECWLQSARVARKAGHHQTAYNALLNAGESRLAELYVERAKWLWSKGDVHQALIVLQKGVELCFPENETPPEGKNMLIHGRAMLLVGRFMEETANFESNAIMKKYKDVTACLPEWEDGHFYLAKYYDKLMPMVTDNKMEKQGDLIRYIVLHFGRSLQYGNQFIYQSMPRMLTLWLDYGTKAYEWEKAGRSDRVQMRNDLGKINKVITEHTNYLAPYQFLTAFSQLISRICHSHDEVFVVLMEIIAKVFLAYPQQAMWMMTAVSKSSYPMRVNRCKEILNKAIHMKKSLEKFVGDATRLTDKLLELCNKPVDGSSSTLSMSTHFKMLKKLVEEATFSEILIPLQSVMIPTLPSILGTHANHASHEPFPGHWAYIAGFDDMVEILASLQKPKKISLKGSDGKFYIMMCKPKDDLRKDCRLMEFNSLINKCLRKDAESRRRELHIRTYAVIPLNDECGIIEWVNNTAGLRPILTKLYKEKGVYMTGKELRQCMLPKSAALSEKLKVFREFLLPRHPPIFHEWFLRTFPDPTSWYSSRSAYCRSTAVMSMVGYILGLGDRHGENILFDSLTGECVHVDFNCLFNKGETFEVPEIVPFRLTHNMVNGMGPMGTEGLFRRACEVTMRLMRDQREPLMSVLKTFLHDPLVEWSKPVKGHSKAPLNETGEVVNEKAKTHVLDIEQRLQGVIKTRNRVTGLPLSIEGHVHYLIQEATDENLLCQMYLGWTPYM
Protocol: Compounds were screened for their ability to inhibit ATR kinase using a radioactive-phosphate incorporation assay. Assays were carried out in a mixture of 50 mM Tris/HCl (pH 7.5), 10 mM MgCl2 and 1 mM DTT. Final substrate concentrations were 10 μM [y-33P]ATP (3 mCi 33P ATP/mmol ATP, Perkin Elmer) and 800 μM target peptide ([…]) (SEQ ID NO:1).
Assays were carried out at 25° C. in the presence of 5 nM full-length ATR. An assay stock buffer solution was prepared containing all of the reagents listed above, with the exception of ATP and the test compound of interest. 13.5 μL of the stock solution was placed in a 96 well plate followed by addition of 2 μL of DMSO stock containing serial dilutions of the test compound (typically starting from a final concentration of 15 μM with 3-fold serial dilutions) in duplicate (final DMSO concentration 7%). The plate was pre-incubated for 10 minutes at 25° C. and the reaction initiated by addition of 15 μL [γ-33P]ATP (final concentration 10 μM).
The reaction was stopped after […] by the addition of 30 μL 0.1M phosphoric acid containing 2 mM ATP. […]
After removing mean background values for all of the data points, Ki(app) data were calculated from non-linear regression analysis of the initial rate data using the Prism software package (GraphPad Prism version 3.0 cx for Macintosh, GraphPad Software, San Diego Calif., USA).

Row | pKi (full-length ATR) | SMILES | Cisplatin Sensitization Assay [1]
1 | 6.00 to 8.00 | Nc1nn2cc(F)cnc2c1C(=O)Nc1cnccc1-c1ccc(C(=O)N2CCN3CCC2CC3)cc1F [I-C-50, N-(4-(4-(1,4-diazabicyclo[3.2.2]nonane-4-carbonyl)-2-fluorophenyl)pyridin-3-yl)-2-amino-6-fluoropyrazolo[1,5-a]pyrimidine-3-carboxamide] | +++ (Compounds with a Cisplatin sensitization value of <0.02 μM are marked with “+++.”)
2 | 5.30 to 6.00 | Nc1nn2cc(F)cnc2c1C(=O)Nc1cncc(F)c1N1CCC(C(=O)O)CC1 [I-N-92, 1-(3-(2-amino-6-fluoropyrazolo[1,5-a]pyrimidine-3-carboxamido)-5-fluoropyridin-4-yl)piperidine-4-carboxylic Acid] | + (Compounds with a Cisplatin sensitization value >0.2 μM but <5 μM are marked with “+.”)
3 |  | Nc1nn2cc(Cl)cnc2c1C(=O)Nc1cnccc1OC1CCCNC1 (centres unmarked) [I-O-75, 2-amino-6-chloro-N-(4-(piperidin-3-yloxy)pyridin-3-yl)pyrazolo[1,5-a]pyrimidine-3-carboxamide] | ++ (Compounds with a Cisplatin sensitization value >0.02 μM but <0.2 μM are marked with “++.”)
4 |  | Nc1nn2cc(Cl)cnc2c1C(=O)Nc1cnccc1O[C@@H]1CCNC1 [I-O-77, (R)-2-amino-6-chloro-N-(4-(pyrrolidin-3-yloxy)pyridin-3-yl)pyrazolo[1,5-a]pyrimidine-3-carboxamide] | ++ (Compounds with a Cisplatin sensitization value >0.02 μM but <0.2 μM are marked with “++.”)
5 |  | Nc1nn2cc(Cl)cnc2c1C(=O)Nc1cnccc1O[C@H]1C[C@]2(CCN2)C1 [I-O-78, N-(4-((4s,6r)-1-azaspiro[3.3]heptan-6-yloxy)pyridin-3-yl)-2-amino-6-chloropyrazolo[1,5-a]pyrimidine-3-carboxamide] | + (Compounds with a Cisplatin sensitization value >0.2 μM but <5 μM are marked with “+.”)
6 |  | Nc1nn2cc(Cl)cnc2c1C(=O)Nc1cnccc1O[C@H]1C[C@@]2(CCN2)C1 [I-O-79, N-(4-((4r,6s)-1-azaspiro[3.3]heptan-6-yloxy)pyridin-3-yl)-2-amino-6-chloropyrazolo[1,5-a]pyrimidine-3-carboxamide] | ++ (Compounds with a Cisplatin sensitization value >0.02 μM but <0.2 μM are marked with “++.”)
7 |  | Nc1nn2cc(Cl)cnc2c1C(=O)Nc1cnccc1OC1CCNCC1 [I-O-80, 2-amino-6-chloro-N-(4-(piperidin-4-yloxy)pyridin-3-yl)pyrazolo[1,5-a]pyrimidine-3-carboxamide] | +++ (Compounds with a Cisplatin sensitization value of <0.02 μM are marked with “+++.”)
8 |  | Nc1nn2cc(Cl)cnc2c1C(=O)Nc1cnccc1O[C@@H]1CCCNC1 [I-O-81, (R)-2-amino-6-chloro-N-(4-(piperidin-3-yloxy)pyridin-3-yl)pyrazolo[1,5-a]pyrimidine-3-carboxamide] | ++ (Compounds with a Cisplatin sensitization value >0.02 μM but <0.2 μM are marked with “++.”)
9 |  | N#CCc1cnc2c(C(=O)Nc3cnccc3OC3CNC3)c(N)nn2c1 [I-O-82, 2-amino-N-(4-(azetidin-3-yloxy)pyridin-3-yl)-6-(cyanomethyl)pyrazolo[1,5-a]pyrimidine-3-carboxamide] | ++ (Compounds with a Cisplatin sensitization value >0.02 μM but <0.2 μM are marked with “++.”)
10 |  | N#CCc1cnc2c(C(=O)Nc3cnccc3OCCN)c(N)nn2c1 [I-O-83, 2-amino-N-(4-(2-aminoethoxy)pyridin-3-yl)-6-(cyanomethyl)pyrazolo[1,5-a]pyrimidine-3-carboxamide] | +++ (Compounds with a Cisplatin sensitization value of <0.02 μM are marked with “+++.”)
11 |  | N#CCc1cnc2c(C(=O)Nc3cnccc3OC3CCNCC3)c(N)nn2c1 [I-O-84, 2-amino-6-(cyanomethyl)-N-(4-(piperidin-4-yloxy)pyridin-3-yl)pyrazolo[1,5-a]pyrimidine-3-carboxamide] | ++ (Compounds with a Cisplatin sensitization value >0.02 μM but <0.2 μM are marked with “++.”)
12 |  | Nc1nn2cc(F)cnc2c1C(=O)Nc1cnccc1O[C@H]1CCCNC1 [I-O-85, (S)-2-amino-6-fluoro-N-(4-(piperidin-3-yloxy)pyridin-3-yl)pyrazolo[1,5-a]pyrimidine-3-carboxamide] | +++ (Compounds with a Cisplatin sensitization value of <0.02 μM are marked with “+++.”)
13 |  | N#CCc1cnc2c(C(=O)Nc3cnccc3O[C@H]3CCNC3)c(N)nn2c1 [I-O-86, (S)-2-amino-6-(cyanomethyl)-N-(4-(pyrrolidin-3-yloxy)pyridin-3-yl)pyrazolo[1,5-a]pyrimidine-3-carboxamide] | ++ (Compounds with a Cisplatin sensitization value >0.02 μM but <0.2 μM are marked with “++.”)
14 |  | CC(C)(C)Oc1ccncc1NC(=O)c1c(N)nn2cc(F)cnc12 [I-O-88, 2-amino-N-(4-(tert-butoxy)pyridin-3-yl)-6-fluoropyrazolo[1,5-a]pyrimidine-3-carboxamide] | +++ (Compounds with a Cisplatin sensitization value of <0.02 μM are marked with “+++.”)
15 |  | CN1CCC(Oc2c(F)cncc2NC(=O)c2c(N)nn3cc(F)cnc23)CC1 [I-O-89, 2-amino-6-fluoro-N-(5-fluoro-4-((1-methylpiperidin-4-yl)oxy)pyridin-3-yl)pyrazolo[1,5-a]pyrimidine-3-carboxamide] | ++ (Compounds with a Cisplatin sensitization value >0.02 μM but <0.2 μM are marked with “++.”)
16 |  | CNc1cc(OC)c(NC(=O)c2c(N)nn3cc(F)cnc23)cn1 [I-O-90, 2-amino-6-fluoro-N-(4-methoxy-6-(methylamino)pyridin-3-yl)pyrazolo[1,5-a]pyrimidine-3-carboxamide] | + (Compounds with a Cisplatin sensitization value >0.2 μM but <5 μM are marked with “+.”)
17 |  | Nc1nn2cc(F)cnc2c1C(=O)Nc1cncc(F)c1OC1CCN(C2COC2)CC1 [I-O-91, 2-amino-6-fluoro-N-(5-fluoro-4-((1-(oxetan-3-yl)piperidin-4-yl)oxy)pyridin-3-yl)pyrazolo[1,5-a]pyrimidine-3-carboxamide] | ++ (Compounds with a Cisplatin sensitization value >0.02 μM but <0.2 μM are marked with “++.”)
18 |  | Nc1nn2cc(F)cnc2c1C(=O)Nc1cnccc1OC1COC1 [I-O-92, 2-amino-6-fluoro-N-(4-(oxetan-3-yloxy)pyridin-3-yl)pyrazolo[1,5-a]pyrimidine-3-carboxamide] | +++ (Compounds with a Cisplatin sensitization value of <0.02 μM are marked with “+++.”)
